Laboratory results from ChEMBL document CHEMBL2396615 (Bioorg Med Chem Lett, 2013).

Tests used:
[1] = target: T1, Bifunctional epoxide hydrolase 2 (Homo sapiens, UniProt P34913); assay: Inhibition of human recombinant soluble epoxide hydrolase using (cyano(6-methoxy-naphthelen-2-yl)methyl trans-[(3-phenyl-oxiran-2-yl)methyl] carbonate) as substrate preincubated for 5 mins prior to substrate addition by fluorescence assay
T1 sequence (P34913 whole entry): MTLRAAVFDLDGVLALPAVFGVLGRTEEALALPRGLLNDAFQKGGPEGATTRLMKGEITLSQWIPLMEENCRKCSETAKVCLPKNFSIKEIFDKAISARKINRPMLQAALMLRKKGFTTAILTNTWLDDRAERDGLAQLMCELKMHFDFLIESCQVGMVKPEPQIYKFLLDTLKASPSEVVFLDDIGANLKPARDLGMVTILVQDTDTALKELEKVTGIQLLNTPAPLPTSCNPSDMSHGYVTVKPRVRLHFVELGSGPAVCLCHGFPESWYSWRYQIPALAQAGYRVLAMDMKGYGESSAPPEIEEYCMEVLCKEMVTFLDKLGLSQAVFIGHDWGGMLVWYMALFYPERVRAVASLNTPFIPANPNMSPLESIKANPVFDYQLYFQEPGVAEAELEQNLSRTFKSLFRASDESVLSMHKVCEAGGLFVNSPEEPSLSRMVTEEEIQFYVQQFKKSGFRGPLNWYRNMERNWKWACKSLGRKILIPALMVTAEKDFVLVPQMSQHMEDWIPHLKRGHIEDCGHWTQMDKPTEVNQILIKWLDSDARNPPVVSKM

[2] = target: T1, Bifunctional epoxide hydrolase 2; assay: Competitive inhibition of human recombinant soluble epoxide hydrolase using [3H]-tDPPO as substrate

IC50 [1] [nM] | Compound | Ki [2] [nM]
> 100000 | CCCCCCCCC(=O)CCCCCCCC | –
> 100000 | CCCCCCCCS(=O)(=O)CCCCCCCC | –
6800 | CCCCCCCC[S+]([O-])Cc1ccccc1 (stereo unspecified) | –
1350 | CCCCCCCC[S+]([O-])CCCCCCCC | –
11000 | O=C(Cc1ccccc1)Nc1ccccc1 | –
> 100000 | CCCCCCCCSCCCCCCCC [DIOCTYLSULFANE] | –

Compound | IC50 [1] [nM] | Ki [2] [nM]
[O-][S+](Cc1ccccc1)Cc1ccccc1 | 70000 | –
O=C(Nc1ccccc1)Nc1ccccc1 | 400 | –
O=c1c2ccccc2[se]n1-c1ccccc1 [EBSELEN] | 2200 | –
C[C@]12CC[C@@H]3c4ccc(O)cc4C[C@@H](CCCCCCCCC[S+]([O-])CCCC(F)(F)C(F)(F)F)[C@H]3[C@@H]1CC[C@@H]2O (stereo partly specified) [FULVESTRANT] | 6 | 26
